The results in this text go back to publication PMC10373739, “The AKT inhibitor, MK-2206, attenuates ABCG2-mediated drug resistance in lung and colon cancer cells” (Frontiers in Pharmacology, 2023).

This assay has as its target T1, ABCG2 transporter (Homo sapiens, UniProt Q9UNQ0).
T1 sequence (Q9UNQ0 1-655): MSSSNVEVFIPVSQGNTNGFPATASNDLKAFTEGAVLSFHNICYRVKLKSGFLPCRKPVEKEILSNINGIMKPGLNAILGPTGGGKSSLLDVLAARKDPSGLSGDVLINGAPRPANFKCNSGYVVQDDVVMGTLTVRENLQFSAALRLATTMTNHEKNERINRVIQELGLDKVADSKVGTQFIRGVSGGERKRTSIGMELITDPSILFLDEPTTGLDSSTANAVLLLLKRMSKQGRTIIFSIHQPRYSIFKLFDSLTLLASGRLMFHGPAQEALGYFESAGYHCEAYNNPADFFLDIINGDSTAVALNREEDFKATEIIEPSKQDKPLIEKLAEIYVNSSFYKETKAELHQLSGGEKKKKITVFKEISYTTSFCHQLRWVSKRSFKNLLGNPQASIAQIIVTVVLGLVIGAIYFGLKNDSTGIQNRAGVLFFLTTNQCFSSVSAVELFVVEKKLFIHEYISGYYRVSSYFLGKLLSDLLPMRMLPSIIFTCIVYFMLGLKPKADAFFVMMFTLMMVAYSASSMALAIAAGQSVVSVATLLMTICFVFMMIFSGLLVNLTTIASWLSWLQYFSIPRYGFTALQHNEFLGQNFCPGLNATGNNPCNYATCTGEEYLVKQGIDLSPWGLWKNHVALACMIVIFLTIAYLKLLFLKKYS
As to the kind of experiment: vanadate-sensitive ATPase assay (stimulation of basal activity) in ABCG2 membrane vesicles from High Five insect cells. The assay is classed as biochemical.

Each structure is given as a SMILES string.

`NC1(c2ccc(-c3nc4ccn5c(=O)[nH]nc5c4cc3-c3ccccc3)cc2)CCC1` [MK-2206] displayed an EC50 of 0.46 µM.

Usually EC50 stands for the concentration giving half of the maximal effect. Higher therefore signals a need for much substance.
